Assay [1] has as its target T1, Human Secreted Phospholipase A2 (Homo sapiens, UniProt P14555).
T1 sequence (P14555 21-144): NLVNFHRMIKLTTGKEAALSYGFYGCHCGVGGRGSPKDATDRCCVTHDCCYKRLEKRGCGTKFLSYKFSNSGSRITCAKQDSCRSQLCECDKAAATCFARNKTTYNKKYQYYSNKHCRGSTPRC
Kind of assay: Human secreted phospholipase A2 inhibition tests on guinea pig lung tissue (pleural strip contraction). It counts as tissue-based. Conditions: guinea pig lung pleural strips, sPLA2-induced contraction, 37° C., compound added 30 min. prior; Schild slope 1, apparent KB = dissociation constant of the inhibitor; read-out: Tissue test secreted PLA2, Apparent KB. From the text: Male Hartley strain guinea pigs (500-700 g) were killed by cervical dislocation and their heart and lungs removed intact and placed in aerated (95% 02 :5% CO2) Krebs buffer. Dorsal pleural strips (4×1×25 mm) were dissected from intact parenchymal segments (8×4×25 mm) cut parallel to the outer edge of the lower lung lobes. Two adjacent pleural strips, obtained from a single lobe and representing a single tissue sample, were tied at either end and independently attached to a metal support rod. One rod was attached to a Grass force-displacement transducer (Model FTO3C, product of Grass Medical Instruments Co., Quincy, Mass., USA). […] All tissues were placed in 10 ml jacketed tissue baths maintained at 37° C. The tissue baths were continuously aerated and contained a modified Krebs solution of the following composition (millimolar) NaCl, 118.2; KCl, 4.6; CaCl2.2H2 O, 2.5; MgSO4.7H2 O, 1.2; NaHCO3, 24.8; KH2 PO4, 1.0; and dextrose, 10.0. Pleural strips from the opposite lobes of the lung were used for paired experiments.
Initially tissues were challenged 3 times with KCl (40 mM) to test tissue viability and to obtain a consistent response. After recording the maximal response to KCl, the Elssues were washed and allowed to return to baseline before the next challenge. Cumulative concentration-response curves were obtained from pleural strips by increasing the agonist concentration (sPLA2) in the tissue bath by half-log10 increments while the previous concentration remained in contact with the tissues (Ref.1, supra.) Agonist concentration was increased after reaching the plateau of the contraction elicited by the preceding concentration. One concentration-response curve was obtained from each tissue. To minimize variability between tissues obtained from different animals, contractile responses were expressed as a percentage of the maximal response obtained with the final KCl challenge. […]
Data from different experiments were pooled and presented as a percentage of the maximal KCl responses (mean±S.E.). To estimate the drug induced rightward shifts in the concentration response curves, the curves were analyzed simultaneously using statistical nonlinear modeling methods similar to those described by Waud (1976), Equation 26, p. […] The Schild slope was determined to be 1, using statistical nonlinear modeling methods similar to those described by Waud 1976), Equation 27, p. […]
To estimate the drug-induced suppression of the maximal responses, sPLA2 responses (10 ug/ml) were determined in the absence and presence of drug, and percent suppression was calculated for each pair of tissues. […]

For assay [2], the target named is T2, human secreted PLA2 (Homo sapiens, UniProt P14555).
T2 sequence (P14555 21-144): T1 sequence (P14555 21-144)
Nature of the assay: Chromogenic assay, inhibition of recombinant human secreted phospholipase A2. It counts as biochemical. Conditions: recombinant human sPLA2, diheptanoyl thio-PC substrate, pH 7.5, 40° C., 30 minutes, 405 nm; ± mean deviation (3-4 tests). From the text: The following chromogenic assay procedure was used to identify and evaluate inhibitors of recombinant human secreted phospholipase A2. The assay described herein has been adapted for high volume screening using 96 well microtiter plates. A general description of this assay method is found in the article, "Analysis of Human Synovial Fluid Phospholipase A2 on Short Chain Phosphatidylcholine-Mixed Micelles: Development of a Spectrophotometric Assay Suitable for a Microtiterplate Reader", by Laure J. Reynolds, Lori L. Hughes, and Edward A Dennis, Analytical Biochemistry,204, pp. 190-197, 1992 (the disclosure of which is incorporated herein by reference):
Bovine Serum Albumin (fatty acid free) (1 g/L) (Sigma A-7030, product of Sigma Chemical Co. St. Louis Mo., USA)
racemic 1,2-bis(heptanoylthio)-1,2-dideoxy-sn-glycero-3-phosphorylcholine
A measured volume of racemic dipheptanoyl thio PC supplied in chloroform at a concentration of 100 mg/ml is taken to dryness and redissolved in 10 millimolar TRITON X 100™ nonionic detergent aqueous solution. Reaction Buff added to the solution, then DTNB to give the Reaction Mixture.
The reaction mixture thus obtained contains […] diheptanoly thio-PC substrate, 0.29 mm Triton X-100™ detergent, and 0.12 mm DTMB in a buffered aqueous solution at pH 7.5.
1. Add 0.2 ml reaction mixture to all wells;
2. Add 10 ul test compound (or solvent blank) to appropriate wells, mix 20 seconds;
3. Add 50 nanograms of sPLA2 (10 microliters) to appropriate wells;
4. Incubate plate at 40° C. for 30 minutes;
5. Read absorbance of wells at 405 nanometers with an automatic plate reader.
All compounds were tested in triplicate. Typically, compounds were tested am a final concentration of 5 ug/ml. […] Lack of color development at 405 nanometers evidenced inhibition. Compounds initially found to be active were reassayed to confirm their activity and, if sufficiently active, IC50 values were determined. […] In all cases, % inhibition measured at 405 nanometers generated by enzyme reactions containing inhibitors relative to the uninhibited control reactions was determined. Each sample was titrated in triplicate and result values were averaged for plotting and calculation of IC50 values. IC50 were determined by plotting log concentration versus inhibition values in the range from 10-90% inhibition.

Each structure is given as a SMILES string.

Regarding `Cc1c(Cc2ccccc2)c2cccc(OCC(=O)O)c2n1CC(N)=O` [Example 1, [[1-(2-Amino-2-oxoethyl)-2-methyl-3-(phenylmethyl)-1H-indol-7-yl]oxy]acetic acid], the Kb in assay [1] came out at 390 ± 120 nM. Moreover, the IC50 in assay [2] was 13 ± 2 nM.

On to `CCc1c(Cc2ccccc2)c2ccc(OCCCC(=O)O)cc2n1CC(N)=O` [Example 2, 4-[[1-(2-amino-2-oxoethyl)-2-ethyl-3-(phenylmethyl)-1H-indol-6-yl]oxy]butyric acid], for which the Kb in assay [1] was 1470 ± 340 nM. Further, the IC50 in assay [2] stood at 33 ± 3 nM.

With `CCc1c(Cc2ccccc2)c2ccc(OCCCP(=O)(O)O)cc2n1CC(N)=O` [Example 3, [3-[[1-(2-amino-2-oxoethyl)-2-ethyl-3-(phenylmethyl)-1H-indol-6-yl]oxy]propyl]phosphonic acid], the Kb in assay [1] amounted to 415 ± 51 nM. Moreover, the IC50 in assay [2] came out at 35 ± 8 nM.

Take `Cc1c(Cc2ccccc2)c2cccc(OCC(=O)O)c2n1CC(=O)NN` [Example 4, [[1-(2-hydrazino-2-oxoethyl)-2-methyl-3-(phenylmethyl)-1H-indol-7-yl]oxy]acetic acid]: the Kb in assay [1] turned out to be 1670 ± 280 nM. Further, in assay [2], the IC50 was determined as 200 ± 90 nM.
